Active and inactive are the calls of the source. The rule behind the calls is not given here.

From PubChem BioAssay AID1259408 (Genetic Toxicology Data Bank (GENE-TOX), 2018) come the findings set out here.

In the data set the test system is GENE-TOX genotoxicity assays, various organisms and cells. Briefly: GENE-TOX mutagenicity studies. The following applies: for call: Assay Type: In vivo carcinogenicity studies.
The mark [1] stands for this setting: Species/Cell Type: Neurospora crassa, Assay Type: Forward gene mutation, Assay Code: NEF+, Evaluation Type: Evaluation A (Pre-1980).
The mark [2] stands for this setting: Species/Cell Type: Nonhuman, Assay Code: CCG+, Evaluation Type: Evaluation A (Pre-1980).
Setting [3] is: Species/Cell Type: Nonhuman, Assay Type: Sister-chromatid exchange (SCE) in vitro, Assay Code: SC2+D, Dose Response: With dose response, Evaluation Type: Evaluation B (Post-1980).
Setting [4] is: Species/Cell Type: Salmonella typhimurium (one or more of the five standard strains: TA98, TA100, TA1535, TA1537, and TA1538), Assay Type: Histidine reverse gene mutation, Ames assay, Assay Code: SAL+, Evaluation Type: Evaluation A (Pre-1980).
The mark [5] stands for this setting: Species/Cell Type: Salmonella typhimurium, Assay Type: Forward and reverse gene mutation, host-mediated assay, Assay Code: HMA-, Evaluation Type: Evaluation A (Pre-1980).
Setting [6] is: Species/Cell Type: Salmonella typhimurium (one or more of the five standard strains: TA98, TA100, TA1535, TA1537, and TA1538), Assay Type: Histidine reverse gene mutation, Ames assay, Assay Code: SAL+*, Activation: With metabolic activation, Evaluation Type: Evaluation A (Pre-1980).
Setting [7] is: Species/Cell Type: Salmonella typhimurium (one or more of the five standard strains: TA98, TA100, TA1535, TA1537, and TA1538), Assay Type: Histidine reverse gene mutation, Ames assay, Assay Code: SALT, Evaluation Type: Evaluation A (Pre-1980).
[8] abbreviates: Species/Cell Type: Nonhuman, Assay Code: CCGT, Evaluation Type: Evaluation A (Pre-1980).

`CC(=O)Oc1c2ccccc2c2ccc3cccc4ccc1c2c43`: for the setting “Species/Cell Type: Syrian hamster embryo (SA7/SHE) cells, Assay Type: Cell transformation, viral enhanced, Assay Code: CT7+, Evaluation Type: Evaluation A (Pre-1980)”, the mutagenic call was “active; positive”.

Take `ClCC1CO1` (stereo not given): the mutagenic call (Species/Cell Type: Drosophila melanogaster, Assay Type: Sex-linked recessive lethal gene mutation, Assay Code: SRL+, Evaluation Type: Evaluation A (Pre-1980)) was “active; positive”; the mutagenic call (Species/Cell Type: Escherichia coli polA (W3119 vs P3478), Assay Type: Rec-assay, DNA effects (bacterial DNA repair), Assay Code: RE1+, Evaluation Type: Evaluation A (Pre-1980)) is “active; positive”; the mutagenic call (Species/Cell Type: Human lymphocytes or leukocytes, Assay Type: Chromosome aberrations in vitro, Assay Code: CY7+, Evaluation Type: Evaluation A (Pre-1980)) is “active; positive”; the mutagenic call (Species/Cell Type: Human lymphocytes or leukocytes, Assay Type: Chromosome aberrations in vivo, Assay Code: CY8+, Evaluation Type: Evaluation A (Pre-1980)) was “active; positive”; the mutagenic call (Species/Cell Type: Human lymphocytes, Assay Type: Sister-chromatid exchange (SCE) in vitro, Assay Code: SCL+D, Dose Response: With dose response, Evaluation Type: Evaluation B (Post-1980)) was “active; positive”; the mutagenic call (Species/Cell Type: Human, Assay Type: Sister-chromatid exchange (SCE) in vitro, Assay Code: SC1+D, Dose Response: With dose response, Evaluation Type: Evaluation B (Post-1980)) was “active; positive”. The mutagenic call is, setting by setting: (Species/Cell Type: Human, Sex: Male, Assay Type: Sperm morphology, Assay Code: SPH-, Evaluation Type: Evaluation A (Pre-1980)) “inactive; negative”; (Species/Cell Type: Mammalian polychromatic erythrocytes, Assay Type: Micronucleus test, chromosome aberrations, Assay Code: MNTT, Evaluation Type: Evaluation A (Pre-1980)) “no conclusion”; (Species/Cell Type: Mouse, Sex: Male, Assay Type: Sperm morphology, Assay Code: SPI-, Evaluation Type: Evaluation A (Pre-1980)) “inactive; negative”; under setting [1], “active; positive”; (Species/Cell Type: Neurospora crassa, Assay Type: Reverse gene mutation, Assay Code: NER+, Evaluation Type: Evaluation A (Pre-1980)) “active; positive”; under setting [3], “active; positive”. Moreover, the mutagenic call is “active; positive” under setting [4]; “active; positive” (Species/Cell Type: Schizosaccharomyces pombe, Assay Type: Forward gene mutation, Assay Code: YEY+, Evaluation Type: Evaluation A (Pre-1980)); “active; positive” (Species/Cell Type: Schizosaccharomyces pombe, Assay Type: Reverse gene mutation, Assay Code: YEZ+, Evaluation Type: Evaluation A (Pre-1980)). The call under setting [2] is “active; positive”.

For the molecule `O=[N+]([O-])c1c(O)ccc2ccccc12`, the mutagenic call under setting [4] was “active; positive”.

Consider `CN(C)CCCN1c2ccccc2Sc2ccc(C(F)(F)F)cc21`, for which the mutagenic call is “inactive; negative” (Species/Cell Type: Nonhuman bone marrow, Assay Type: Chromosome aberrations, in vivo, Assay Code: CY#-, Evaluation Type: Evaluation A (Pre-1980)); “active; positive” (Species/Cell Type: Nonhuman, Assay Type: Chromosome aberrations in vitro, Assay Code: CY&+, Evaluation Type: Evaluation A (Pre-1980)); “active; positive” (Species/Cell Type: Rodents, Sex: Male, Assay Type: Dominant lethal test, Assay Code: DLT+, Evaluation Type: Evaluation A (Pre-1980)); “inactive; negative” under setting [5].

With `Nc1ccc(Oc2ccc(N)cc2)cc1`, the call under setting [2] is “active; positive”. The mutagenic call (Species/Cell Type: Nonhuman, Assay Type: Sister-chromatid exchange (SCE) in vivo, Assay Code: SC3T, Evaluation Type: Evaluation B (Post-1980)) is given as “no conclusion”.

Regarding `Cc1cc(N=Nc2ccccc2C)ccc1N`, the mutagenic call is, setting by setting: (Species/Cell Type: Escherichia coli polA (W3110 vs P3478), Assay Type: Rec-assay, DNA effects (bacterial DNA repair), Assay Code: RE2+, Evaluation Type: Evaluation A (Pre-1980)) “active; positive”; (Species/Cell Type: Escherichia coli polA (W3119 vs P3478), Assay Type: Rec-assay, DNA effects (bacterial DNA repair), Assay Code: RE1T, Evaluation Type: Evaluation A (Pre-1980)) “no conclusion”; under setting [1], “active; positive”; under setting [3], “active; positive”; (Species/Cell Type: Nonhuman, Assay Type: Sister-chromatid exchange (SCE) in vitro, Assay Code: SC2T, Evaluation Type: Evaluation A (Pre-1980)) “no conclusion”; (Species/Cell Type: Nonhuman, Assay Type: Sister-chromatid exchange (SCE) in vivo, Assay Code: SC3+, Evaluation Type: Evaluation B (Post-1980)) “active; positive”. Besides, the mutagenic call was “inactive; negative” (Species/Cell Type: Saccharomyces cerevisiae, Assay Type: Mitotic recombination or gene conversion, Assay Code: YEH-, Evaluation Type: Evaluation A (Pre-1980)); “active; positive” under setting [6]; “no conclusion” under setting [7]; “inactive; negative” under setting [5]; “active; positive” (Species/Cell Type: Syrian hamster embryo (SHE) cells, Assay Type: Cell transformation, clonal assay, Assay Code: CTC+, Evaluation Type: Evaluation A (Pre-1980)). Moreover, under setting [2], the call was “active; positive”.

For the molecule `COc1cc(NC(=O)c2ccccc2)c(OC)cc1[N+]#N`, the mutagenic call (Species/Cell Type: Bacillus subtilis (H17 vs M45), Assay Type: Rec-assay, spot test, DNA effects (bacterial DNA repair), Assay Code: REWT, Evaluation Type: Evaluation A (Pre-1980)) is given as “no conclusion”.

Regarding `CC(C)(C)N(CCCCO)N=O`, the mutagenic call under setting [7] was “no conclusion”.

Take `CCN(CCCl)CCCNc1c2ccc(Cl)cc2nc2ccc(OC)nc12`: the mutagenic call (Species/Cell Type: Chinese hamster ovary (CHO) cells, Assay Type: Forward gene mutation at the HPRT locus, Assay Code: CHO+, Evaluation Type: Evaluation B (Post-1980)) is “active; positive”.

Take `Cc1ccc2cc3c(ccc4ccccc43)c3c2c1CC3=O`: the mutagenic call is “active; positive” (Species/Cell Type: Chinese hamster lung (V79) cells, Assay Type: Forward gene mutation at the HPRT or ouabain locus, Assay Code: V79+, Evaluation Type: Evaluation A (Pre-1980)) and “active; positive” under setting [6]. The call under setting [8] was “no conclusion”.

With `O=C1c2cc(O)ccc2-c2ccc(O)c3cccc1c23`, under setting [6], the mutagenic call was “active; positive”.

On to `Cc1c2ccccc2c(C)c2c1cc(O)c1ccccc12`, for which, under “Species/Cell Type: Chinese hamster lung (V79) cells, Assay Type: Forward gene mutation at the HPRT or ouabain locus, Assay Code: V79-*, Activation: With metabolic activation, Evaluation Type: Evaluation A (Pre-1980)”, the mutagenic call was “inactive; negative”. Also, the call under setting [8] was “no conclusion”.

Regarding `Cc1cc2c(c3ccc4ccccc4c13)CC(O)C2=O` (stereo not given), under setting [6], the mutagenic call is “active; positive”.

With `Cc1c2c(c(CO)c3ccc4ccccc4c13)C=C[C@H](O)[C@H]2O`, the call under setting [8] is “no conclusion”.

Consider `C#C[C@@]1(O)CC[C@@H]2[C@H]3CCC4=CC(=O)CC[C@H]4[C@@H]3CC[C@]21CC`, for which the mutagenic call (Species/Cell Type: Rabbit, Sex: Male, Assay Type: Sperm morphology, Assay Code: SPR-, Evaluation Type: Evaluation A (Pre-1980)) is “inactive; negative”.

Turning to `C=CC1C(C)OC(=O)C1C(C)=O` (stereo not given), the mutagenic call (Species/Cell Type: Allium cepa, Assay Type: Chromosome aberrations, Assay Code: ALC+, Evaluation Type: Evaluation A (Pre-1980)) was “active; positive”.

Turning to `CN(C)CCC=C1c2ccccc2C=Cc2ccccc21`, the mutagenic call under setting [7] is given as “no conclusion”.
